Assay results taken from the CheMixHub viscosity set.
Where “and” joins values, the source holds several entries; their conditions need not be identical. Identical values can stand only once.

Assay: xn = mol fraction of the nth substance listed

OCCOCCO + O
Settings | viscosity
293.15 K, 100 kPa, x2 = 0.013 | 37.31 mPa·s
293.15 K, 100 kPa, x2 = 0.037 | 35.38 mPa·s and 33.15 mPa·s
293.15 K, 100 kPa, x2 = 0.038 | 34.7 mPa·s
293.15 K, 100 kPa, x2 = 0.075 | 34.97 mPa·s
293.15 K, 100 kPa, x2 = 0.082 | 34.55 mPa·s
298.15 K, 100 kPa, x2 = 0.013 | 29.02 mPa·s
298.15 K, 100 kPa, x2 = 0.037 | 27.76 mPa·s
298.15 K, 100 kPa, x2 = 0.075 | 27.47 mPa·s
298.15 K, 100 kPa, x2 = 0.082 | 27.12 mPa·s
298.15 K, 101.33 kPa, x2 = 0.1041 | 25.71 mPa·s
298.15 K, 101.33 kPa, x2 = 0.2105 | 24.14 mPa·s
298.15 K, 101.33 kPa, x2 = 0.2697 | 22.9 mPa·s
298.15 K, 101.33 kPa, x2 = 0.4009 | 19.9 mPa·s
298.15 K, 101.33 kPa, x2 = 0.5145 | 16.51 mPa·s
298.15 K, 101.33 kPa, x2 = 0.6157 | 12.99 mPa·s
298.15 K, 101.33 kPa, x2 = 0.7095 | 9.442 mPa·s
298.15 K, 101.33 kPa, x2 = 0.825 | 5.193 mPa·s
298.15 K, 101.33 kPa, x2 = 0.9059 | 2.772 mPa·s
303.15 K, 100 kPa, x2 = 0.013 | 23.06 mPa·s
303.15 K, 100 kPa, x2 = 0.038 | 21.92 mPa·s
303.15 K, 100 kPa, x2 = 0.075 | 21.95 mPa·s
303.15 K, 101 kPa, x1 = 0.002 | 0.836 mPa·s
303.15 K, 101 kPa, x1 = 0.004 | 0.863 mPa·s
303.15 K, 101 kPa, x1 = 0.005 | 0.883 mPa·s
303.15 K, 101 kPa, x1 = 0.007 | 0.91 mPa·s
303.15 K, 101 kPa, x1 = 0.009 | 0.938 mPa·s
303.15 K, 101 kPa, x1 = 0.01 | 0.975 mPa·s and 1.02 mPa·s and 1.076 mPa·s
303.15 K, 101 kPa, x1 = 0.018 | 1.171 mPa·s
303.15 K, 101.33 kPa, x1 = 0.0004 | 0.778 mPa·s
303.15 K, 101.33 kPa, x1 = 0.0007 | 0.785 mPa·s
303.15 K, 101.33 kPa, x1 = 0.0015 | 0.788 mPa·s
303.15 K, 101.33 kPa, x1 = 0.0027 | 0.804 mPa·s
303.15 K, 101.33 kPa, x1 = 0.0047 | 0.836 mPa·s
303.15 K, 101.33 kPa, x1 = 0.0193 | 1.02 mPa·s
303.15 K, 101.33 kPa, x1 = 0.0548 | 1.579 mPa·s
303.15 K, 101.33 kPa, x1 = 0.0991 | 2.467 mPa·s
303.15 K, 101.33 kPa, x1 = 0.1966 | 4.98 mPa·s
303.15 K, 101.33 kPa, x1 = 0.2956 | 7.943 mPa·s
303.15 K, 101.33 kPa, x1 = 0.3956 | 10.97 mPa·s
303.15 K, 101.33 kPa, x1 = 0.4905 | 13.62 mPa·s
303.15 K, 101.33 kPa, x1 = 0.6406 | 17.06 mPa·s
303.15 K, 101.33 kPa, x1 = 0.8543 | 20.37 mPa·s
308.15 K, 100 kPa, x2 = 0.013 | 18.69 mPa·s
308.15 K, 100 kPa, x2 = 0.037 | 18.11 mPa·s and 16.84 mPa·s
308.15 K, 100 kPa, x2 = 0.082 | 17.7 mPa·s
308.15 K, 101 kPa, x1 = 0.002 | 0.736 mPa·s
308.15 K, 101 kPa, x1 = 0.004 | 0.753 mPa·s
308.15 K, 101 kPa, x1 = 0.005 | 0.805 mPa·s
308.15 K, 101 kPa, x1 = 0.007 | 0.832 mPa·s
308.15 K, 101 kPa, x1 = 0.009 | 0.867 mPa·s
308.15 K, 101 kPa, x1 = 0.01 | 0.902 mPa·s and 0.938 mPa·s and 0.991 mPa·s
308.15 K, 101 kPa, x1 = 0.018 | 1.082 mPa·s
308.15 K, 101 kPa, x1 = 0.02 | 1.028 mPa·s
308.15 K, 101 kPa, x1 = 0.7525 | 15.65 mPa·s
308.15 K, 101.33 kPa, x1 = 0.0004 | 0.704 mPa·s
308.15 K, 101.33 kPa, x1 = 0.0007 | 0.71 mPa·s
308.15 K, 101.33 kPa, x1 = 0.0015 | 0.717 mPa·s
308.15 K, 101.33 kPa, x1 = 0.0027 | 0.73 mPa·s
308.15 K, 101.33 kPa, x1 = 0.0047 | 0.749 mPa·s
308.15 K, 101.33 kPa, x1 = 0.0193 | 0.905 mPa·s
308.15 K, 101.33 kPa, x1 = 0.0991 | 2.107 mPa·s
308.15 K, 101.33 kPa, x1 = 0.1966 | 4.169 mPa·s
308.15 K, 101.33 kPa, x1 = 0.2956 | 6.484 mPa·s
308.15 K, 101.33 kPa, x1 = 0.3956 | 8.911 mPa·s
308.15 K, 101.33 kPa, x1 = 0.4905 | 10.95 mPa·s
308.15 K, 101.33 kPa, x1 = 0.5794 | 12.64 mPa·s
308.15 K, 101.33 kPa, x1 = 0.775 | 15.47 mPa·s
308.15 K, 101.33 kPa, x1 = 0.8543 | 16.25 mPa·s
308.15 K, 101.33 kPa, x1 = 0.917 | 16.82 mPa·s
313.15 K, 100 kPa, x2 = 0.013 | 15.39 mPa·s
313.15 K, 100 kPa, x2 = 0.037 | 14.96 mPa·s
313.15 K, 100 kPa, x2 = 0.038 | 15.25 mPa·s
313.15 K, 100 kPa, x2 = 0.075 | 14.8 mPa·s
313.15 K, 101 kPa, x1 = 0.002 | 0.67 mPa·s
313.15 K, 101 kPa, x1 = 0.004 | 0.685 mPa·s
313.15 K, 101 kPa, x1 = 0.005 | 0.703 mPa·s
313.15 K, 101 kPa, x1 = 0.007 | 0.738 mPa·s
313.15 K, 101 kPa, x1 = 0.009 | 0.78 mPa·s
313.15 K, 101 kPa, x1 = 0.01 | 0.83 mPa·s and 0.872 mPa·s and 0.907 mPa·s
313.15 K, 101 kPa, x1 = 0.018 | 0.994 mPa·s
313.15 K, 101 kPa, x1 = 0.02 | 0.958 mPa·s
318.15 K, 100 kPa, x2 = 0.013 | 12.84 mPa·s
318.15 K, 100 kPa, x2 = 0.037 | 12.51 mPa·s
318.15 K, 100 kPa, x2 = 0.038 | 12.4 mPa·s
318.15 K, 100 kPa, x2 = 0.075 | 12.37 mPa·s
318.15 K, 101 kPa, x1 = 0.002 | 0.612 mPa·s
318.15 K, 101 kPa, x1 = 0.004 | 0.621 mPa·s
318.15 K, 101 kPa, x1 = 0.005 | 0.654 mPa·s
318.15 K, 101 kPa, x1 = 0.007 | 0.688 mPa·s
318.15 K, 101 kPa, x1 = 0.009 | 0.729 mPa·s
318.15 K, 101 kPa, x1 = 0.01 | 0.779 mPa·s and 0.821 mPa·s and 0.864 mPa·s
318.15 K, 101 kPa, x1 = 0.018 | 0.949 mPa·s
318.15 K, 101 kPa, x1 = 0.02 | 0.906 mPa·s
323.15 K, 100 kPa, x2 = 0.013 | 10.85 mPa·s
323.15 K, 100 kPa, x2 = 0.037 | 10.58 mPa·s and 9.873 mPa·s
323.15 K, 100 kPa, x2 = 0.038 | 10.49 mPa·s
323.15 K, 100 kPa, x2 = 0.075 | 10.44 mPa·s
323.15 K, 100 kPa, x2 = 0.082 | 10.35 mPa·s
323.15 K, 101 kPa, x1 = 0.002 | 0.555 mPa·s
323.15 K, 101 kPa, x1 = 0.004 | 0.571 mPa·s
323.15 K, 101 kPa, x1 = 0.005 | 0.587 mPa·s
323.15 K, 101 kPa, x1 = 0.007 | 0.619 mPa·s
323.15 K, 101 kPa, x1 = 0.009 | 0.667 mPa·s
323.15 K, 101 kPa, x1 = 0.01 | 0.707 mPa·s and 0.747 mPa·s and 0.78 mPa·s
323.15 K, 101 kPa, x1 = 0.018 | 0.869 mPa·s
323.15 K, 101 kPa, x1 = 0.02 | 0.828 mPa·s
